Assay results from patent publication US3971779A, “7-[2-(5-Amino-1,3,4-thiadiazol-2-ylthio)acetamido]cephalosporins” (American Home Products Corporation, priority 1975, dated 1976).
Converted amounts (≈) assume the structure as drawn. Read-outs that look alike come from different tables or passages of the source.

Tests used:
[1] = system: Staphylococcus aureaus CHP; assay: mice infected intraperitoneally, single dose six hours post-infection, deaths and CD50; format: in vivo; conditions: for ED50: Staphylococcus, po, single dose, mice; for Deaths / Total No. Treated: oral
Method: Mice are infected intraperitoneally with a standardized suspension of Staphylococcus aureaus CHP in 5% gastric mucin. The animals are randomized. Six hours post-infection a single dose of the compound indicated is administered by the route indicated. The animals are observed for a 30 day period and deaths are recorded daily. The CD50 for 14 and 30 days as determined by the method of Reed and Muench, American Journal of Hygiene (1938), for each compound is tabulated:
7-[2-(5-Acetylamino-1,3,4-thiadiazol-2-ylthio)acetamido]cephalosporanic acid is tested as described in Example 5.

[2] = system: Proteus vulgaris (PR VU) 6896; assay: agar serial dilution MIC; format: cell-based
Method: (§1) A stock solution of 7-[2-(4,5-dihydro-5-imino-1,3,4-thiadiazol-2-ylthio)acetamido]cephalosporanic acid as the hydrobromic acid addition salt containing 2,500 μg. of the active moiety is prepared in phosphate buffer. Two fold serial dilutions are prepared with phosphate buffer. One milliliter (ml.) quantities of each dilution are incorporated in 9 ml. seen agar in sterile Petri plates. The hardened surface is innoculated with test organisms using a Steers replicating device. The plates are incubated at 35° C. for 18 hours.
(§2) The test organisms are Bacillus subtilis (BA SU) 6633; Staphylococcus aureus (ST AU) 6538P, Smith CHP, and 3-180; Mycobacterium smegmatis (MY SM) 10143; Neisseria catarrhalis (NE CA) 8193; Pseudonomas aeruginosa (PS AE) 10145; Escherichia coli (ES CO) 9637, and 920; Escherichia intermedia (ES IN) 65-1; Salmonella paratyphi (SA PA) 11737; Enterobacter aerogenes (EN AE) 13048; Klebsiella pneumoniae (KL PN) 10031; Bordetella bronchiseptica (BO BR) 4617; Proteus vulgaris (PR VU) 6896; and Herellea species (HE SP) 9955. These organisms are grown for 18 hours in Brain heart infusion at 35° C. Prior to use the cultures are diluted 10 fold with the infusion, except in the case of Mycobacterium. The latter is grown in Emerson's broth for 5 days at 28° C. in shaker flasks and used undiluted.
(§3) A second preparation of 7-[2-(4,5-dihydro-5-imino-1,3,4-thiadiazol-2-ylthio)acetamido]cephalosporanic acid prepared as described in Example 1 is tested as described in Example 2. The minimum inhibitory concentrations obtained are as follows: […]

[3] = system: Escherichia intermedia (ES IN) 65-1; assay: agar serial dilution MIC; format: cell-based; conditions: Citrobacter intermedius
Method: as §1, §2, §3

[4] = system: Salmonella paratyphi (SA PA) 11737; assay: agar serial dilution MIC; format: cell-based; conditions: Salmonella enterica, 18 h
Method: as §1, §2, §3

[5] = system: Pseudonomas aeruginosa (PS AE) 10145; assay: agar serial dilution MIC; format: cell-based
Method: as §1, §2, §3

[6] = system: Bacillus subtilis (BA SU) 6633; assay: agar serial dilution MIC; format: cell-based
Method: as §1, §2, §3

[7] = system: Enterobacter aerogenes (EN AE) 13048; assay: agar serial dilution MIC; format: cell-based; conditions: Klebsiella aerogenes
Method: as §1, §2, §3

[8] = system: Escherichia coli (ES CO) 920; assay: agar serial dilution MIC; format: cell-based
Method: as §1, §2, §3

[9] = system: Staphylococcus aureus (ST AU) 3-180; assay: agar serial dilution MIC; format: cell-based; conditions: 18 h
Method: as §1, §2, §3

[10] = system: Neisseria catarrhalis (NE CA) 8193; assay: agar serial dilution MIC; format: cell-based
Method: as §1, §2, §3

[11] = system: Staphylococcus aureus (ST AU) CHP; assay: agar serial dilution MIC; format: cell-based
Method: as §1, §2, §3

[12] = system: Mycobacterium smegmatis (MY SM) 10143; assay: agar serial dilution MIC; format: cell-based; conditions: Mycolicibacterium smegmatis
Method: as §1, §2, §3

[13] = system: Staphylococcus aureus (ST AU) Smith; assay: agar serial dilution MIC; format: cell-based
Method: as §1, §2, §3

[14] = system: Bordetella bronchiseptica (BO BR) 4617; assay: agar serial dilution MIC; format: cell-based; conditions: 18 h
Method: as §1, §2, §3

[15] = system: Herellea species (HE SP) 9955; assay: agar serial dilution MIC; format: cell-based
Method: as §1, §2, §3

[16] = system: Staphylococcus aureus (ST AU) 6538P; assay: agar serial dilution MIC; format: cell-based
Method: as §1, §2, §3

[17] = system: Klebsiella pneumoniae (KL PN) 10031; assay: agar serial dilution MIC; format: cell-based
Method: as §1, §2, §3

[18] = system: Escherichia coli (ES CO) 9637; assay: agar serial dilution MIC; format: cell-based
Method: as §1, §2, §3

[19] = system: Providencia alcalifaciens 9886; assay: agar serial dilution MIC; format: cell-based; conditions: Example 4
Method: as §1, §2
(§4) Following the procedure of Example 2 but substituting the organisms listed below the same preparation of 7-[2-(4,5-dihydro-5-imino-1,3,4-thiadiazol-2-ylthio)acetamido]cephalosporanic acid (Compound A) as used in Example 3, a third sample of the same compound, prepared as described in Example 1 (Compound B) and 7-[2-(5-acetamido-1,3,4-thiadiazol-2-ylthio)acetamido]cephalosporanic acid (Compound C) are tested to obtain the results shown: […]

[20] = system: Klebsiella rhinoscleromatis 13884; assay: agar serial dilution MIC; format: cell-based; conditions: Klebsiella pneumoniae, Example 4
Method: as §1, §2, §4

[21] = system: Proteus mirabilis 9921; assay: agar serial dilution MIC; format: cell-based; conditions: Example 4
Method: as §1, §2, §4

[22] = 18 h, second preparation (Example 3), read-out: minimum inhibitory concentration (MIC)
[23] = first preparation (Example 2), HBr salt, 35° C., 18 hours, read-out: minimum concentration (MIC) required to completely inhibit growth
[24] = read-out: minimum concentration (MIC) required to completely inhibit growth
[25] = second preparation (Example 3), read-out: minimum inhibitory concentration (MIC)

With `CC(=O)OCC1=C(C(=O)O)N2C(=O)C(NC(=O)CSc3n[nH]c(=N)s3)C2SC1` (centres unmarked) [7-[2-(4,5-Dihydro-5-Imino-1,3,4-Thiadiazol-2-ylthio)Acetamido]Cephalosporanic Acid] the ED50 ([1]; 336 h, 14 Days) was 3.21 mg/kg, the ED50 ([1]; 720 h, 30 Days) was 3.4 mg/kg and the “Deaths / Total No. Treated” value ([1]; 100 mg/kg., 14 Days) was 10/10. For the same compound, the “Deaths / Total No. Treated” value ([1]; 100 mg/kg., 30 Days) was 10/10, the “Deaths / Total No. Treated” value ([1]; 200 mg/kg., 14 Days) was 4/10 and the “Deaths / Total No. Treated” value ([1]; 200 mg/kg., 30 Days) was 4/10. For the same compound, the “Deaths / Total No. Treated” value ([1]; 400 mg/kg., 14 Days) was 0/10, the “Deaths / Total No. Treated” value ([1]; 400 mg/kg., 30 Days) was 0/10 and the “Deaths / Total No. Treated” value ([1]; 800 mg/kg., 14 Days) was 0/10. The “Deaths / Total No. Treated” value ([1]; 800 mg/kg., 30 Days) was 1/10, the MIC [2, 22] was 3.9 µg/mL (≈ 8.75 µM) and the MIC [2, 23] was 15.6 µg/mL. It also gave an MIC [3, 22] greater than 250 µg/mL, an MIC [3, 23] greater than 250 µg/mL and an MIC [4, 24] of 3.9 µg/mL (≈ 8.75 µM). For the same compound, the MIC ([4]; read-out: minimum inhibitory concentration (MIC)) was 3.9 µg/mL (≈ 8.75 µM), the MIC [5, 22] was greater than 250 µg/mL and the MIC [5, 23] was greater than 250 µg/mL. The MIC [6, 22] was 0.122 µg/mL (≈ 0.274 µM), the MIC [6, 23] was 0.122 µg/mL and the MIC [7, 22] was greater than 250 µg/mL. The MIC [7, 23] was greater than 250 µg/mL, the MIC [8, 22] was 3.9 µg/mL (≈ 8.75 µM) and the MIC [8, 23] was 15.6 µg/mL. For the same compound, the MIC [9, 24] was 1.95 µg/mL (≈ 4.38 µM), the MIC [9, 25] was 3.9 µg/mL (≈ 8.75 µM) and the MIC [10, 22] was 62.5 µg/mL (≈ 140 µM). The MIC [10, 23] was 31.3 µg/mL, the MIC ([11]; 18 h, read-out: minimum inhibitory concentration (MIC)) was 1.95 µg/mL (≈ 4.38 µM) and the MIC [11, 23] was 0.976 µg/mL. For the same compound, the MIC [12, 22] was greater than 250 µg/mL, the MIC [12, 23] was greater than 250 µg/mL and the MIC [13, 22] was 0.488 µg/mL (≈ 1.1 µM). For the same compound, the MIC [13, 23] was 0.244 µg/mL, the MIC [14, 24] was 7.81 µg/mL (≈ 17.5 µM) and the MIC [14, 25] was 3.9 µg/mL (≈ 8.75 µM). The MIC [15, 22] was greater than 250 µg/mL, the MIC [15, 23] was greater than 250 µg/mL and the MIC [16, 22] was 0.976 µg/mL (≈ 2.19 µM). The MIC [16, 23] was 0.488 µg/mL, the MIC [17, 22] was 3.9 µg/mL (≈ 8.75 µM) and the MIC [17, 23] was 3.9 µg/mL. The MIC [18, 22] was 31.3 µg/mL (≈ 70.3 µM), the MIC [18, 23] was 7.81 µg/mL and the MIC [19] was greater than 250 µg/mL. It also gave an MIC [20] greater than 250 µg/mL and an MIC [21] of 7.81 µg/mL (≈ 17.5 µM).
